Assays:
Plasmodium falciparum [1] = assay: Antiplasmodial activity against intraerythrocytic stage of Plasmodium falciparum Dd2 assessed as parasite growth inhibition after 72 hrs by SYBR Green I dye-based assay; assay type: functional; conditions: Dd2, 72 h
Plasmodium falciparum [2] = assay: Antiplasmodial activity against Plasmodium falciparum FcB1/Columbia infected in human erythrocytes assessed as parasite growth inhibition after 24 hrs by [3H]-hypoxanthine incorporation assay; assay type: functional, cell-based
[3] = Stability of the compound under freezing condition; assay type: physicochemical

Row | Stability [3] | Compound | IC50 (Plasmodium falciparum [1]) | IC50 (Plasmodium falciparum [2])
1 |  | CC(=O)c1c(O)cc(O)c(CC=C(C)C)c1O | > 20 µM | 
2 |  | CC(=O)c1c(O)cc(O)c(C/C=C(\C)CCC=C(C)C)c1O | 6.6 µM | 
3 |  | COc1cc(O)c(C(C)=O)c(O)c1Cc1c(OC)cc(O)c(C(C)=O)c1O | 8.1 µM | 17.6 µM
4 |  | COc1cc(O)c(C(C)=O)c(O)c1CC=C(C)C | 1.7 µM | 7.4 µM
5 | Unstable | CC(=O)c1c(O)c(CC=C(C)C)c(O)c(C(c2ccc(F)cc2)c2c(O)cc(O)c(CC=C(C)C)c2O)c1O (centres undefined) | 2 to 4 µM | 
6 |  | COc1cc(O)c(C(C)=O)c(O)c1C/C=C(/C)CC/C=C(/C)CCC=C(C)C | 0.56 µM | 
7 |  | COc1c(C/C=C(\C)CCC=C(C)C)c(O)c(C(C)=O)c(O)c1Cc1c(O)c(C(C)=O)c(O)c(C/C=C(\C)CCC=C(C)C)c1OC | 1.7 µM | 6 µM
8 |  | COc1cc(O)c(C(C)=O)c(O)c1CCC(C)(C)O | > 20 µM | 
9 |  | CC(=O)c1c(O)cc(O)c(C/C=C(/C)CC/C=C(/C)CCC=C(C)C)c1O | 3.6 µM | 
10 |  | COc1c(CCC(C)(C)O)c(O)c(C(C)=O)c(O)c1Cc1c(O)c(C(C)=O)c(O)c(CCC(C)(C)O)c1OC | > 10 µM | 
11 |  | COc1cc(O)c(C(C)=O)c(O)c1C/C=C(\C)CCC=C(C)C | 0.57 µM | 4.4 µM
12 |  | COc1cc(O)c(C(C)=O)c(O)c1 | > 20 µM | 
13 |  | CC(=O)c1c(O)cc(O)cc1O [2,4,6-TRIHYDROXYACETOPHENONE] | > 20 µM | 
14 |  | COc1c(CC=C(C)C)c(O)c(C(C)=O)c(O)c1Cc1c(O)c(C(C)=O)c(O)c(CC=C(C)C)c1OC [MALLOTOJAPONIN C] |  | 0.75 µM
